Data reported in patent US12172995B2, “Substituted indole and indazole compounds” (BRISTOL-MYERS SQUIBB COMPANY, priority 2018, dated 2024).

Tests used:
Assay type in all cases: cell-based
human TLR7 = biological target: T1, human TLR7 (Homo sapiens, UniProt Q9NYK1); assay: TLR7 inhibition reporter assay (HEK-Blue SEAP); details: HEK-Blue cells overexpressing human TLR7, stimulated with gardiquimod 7.5 μM, 22 hour incubation
T1 construct: host or cells: HEK-Blue cells
T1 sequence (Q9NYK1 27-1049): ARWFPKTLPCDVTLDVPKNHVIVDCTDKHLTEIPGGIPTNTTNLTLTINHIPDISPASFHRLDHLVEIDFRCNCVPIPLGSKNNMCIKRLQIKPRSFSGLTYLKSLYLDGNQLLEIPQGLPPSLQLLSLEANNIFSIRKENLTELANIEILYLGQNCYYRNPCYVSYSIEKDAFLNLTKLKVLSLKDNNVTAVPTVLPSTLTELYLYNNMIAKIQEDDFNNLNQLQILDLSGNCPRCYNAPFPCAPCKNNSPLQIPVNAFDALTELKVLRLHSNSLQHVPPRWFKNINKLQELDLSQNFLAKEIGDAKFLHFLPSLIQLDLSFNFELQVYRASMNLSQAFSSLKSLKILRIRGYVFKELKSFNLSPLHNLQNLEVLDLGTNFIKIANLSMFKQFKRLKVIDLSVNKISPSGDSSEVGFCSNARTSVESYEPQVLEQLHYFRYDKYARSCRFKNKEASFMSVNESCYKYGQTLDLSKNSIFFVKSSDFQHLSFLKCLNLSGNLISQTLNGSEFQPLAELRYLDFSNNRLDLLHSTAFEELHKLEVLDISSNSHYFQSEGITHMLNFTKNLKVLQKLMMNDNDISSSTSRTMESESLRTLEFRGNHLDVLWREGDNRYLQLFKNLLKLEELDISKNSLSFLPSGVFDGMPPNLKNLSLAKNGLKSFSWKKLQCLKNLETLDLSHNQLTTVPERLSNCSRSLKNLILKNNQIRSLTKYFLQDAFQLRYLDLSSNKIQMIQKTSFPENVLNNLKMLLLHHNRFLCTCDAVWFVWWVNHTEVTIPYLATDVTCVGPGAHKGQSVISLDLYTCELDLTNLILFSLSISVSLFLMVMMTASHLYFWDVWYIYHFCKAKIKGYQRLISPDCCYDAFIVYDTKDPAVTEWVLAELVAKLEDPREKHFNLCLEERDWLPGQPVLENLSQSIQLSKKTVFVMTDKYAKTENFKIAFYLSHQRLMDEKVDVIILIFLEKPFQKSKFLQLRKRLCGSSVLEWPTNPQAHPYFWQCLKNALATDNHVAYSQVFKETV
Summary of the method: (§1)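 Cells are seeded, given test compound across 0.05 nM to 50 μM, and after 30 min at room temperature stimulated with the receptor's agonist (gardiquimod 7.5 μM, R848 15.9 μM or ODN2006 5 nM for TLR7, 8, 9). SEAP is measured after 22 h at 37 °C.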

human TLR8 = biological target: T2, human TLR8 (Homo sapiens, UniProt Q9NR97); assay: TLR8 inhibition reporter assay (HEK-Blue SEAP); details: HEK-Blue cells overexpressing human TLR8, stimulated with R848 15.9 μM, 22 hour incubation
T2 construct: host or cells: HEK-Blue cells
T2 sequence (Q9NR97 27-1041): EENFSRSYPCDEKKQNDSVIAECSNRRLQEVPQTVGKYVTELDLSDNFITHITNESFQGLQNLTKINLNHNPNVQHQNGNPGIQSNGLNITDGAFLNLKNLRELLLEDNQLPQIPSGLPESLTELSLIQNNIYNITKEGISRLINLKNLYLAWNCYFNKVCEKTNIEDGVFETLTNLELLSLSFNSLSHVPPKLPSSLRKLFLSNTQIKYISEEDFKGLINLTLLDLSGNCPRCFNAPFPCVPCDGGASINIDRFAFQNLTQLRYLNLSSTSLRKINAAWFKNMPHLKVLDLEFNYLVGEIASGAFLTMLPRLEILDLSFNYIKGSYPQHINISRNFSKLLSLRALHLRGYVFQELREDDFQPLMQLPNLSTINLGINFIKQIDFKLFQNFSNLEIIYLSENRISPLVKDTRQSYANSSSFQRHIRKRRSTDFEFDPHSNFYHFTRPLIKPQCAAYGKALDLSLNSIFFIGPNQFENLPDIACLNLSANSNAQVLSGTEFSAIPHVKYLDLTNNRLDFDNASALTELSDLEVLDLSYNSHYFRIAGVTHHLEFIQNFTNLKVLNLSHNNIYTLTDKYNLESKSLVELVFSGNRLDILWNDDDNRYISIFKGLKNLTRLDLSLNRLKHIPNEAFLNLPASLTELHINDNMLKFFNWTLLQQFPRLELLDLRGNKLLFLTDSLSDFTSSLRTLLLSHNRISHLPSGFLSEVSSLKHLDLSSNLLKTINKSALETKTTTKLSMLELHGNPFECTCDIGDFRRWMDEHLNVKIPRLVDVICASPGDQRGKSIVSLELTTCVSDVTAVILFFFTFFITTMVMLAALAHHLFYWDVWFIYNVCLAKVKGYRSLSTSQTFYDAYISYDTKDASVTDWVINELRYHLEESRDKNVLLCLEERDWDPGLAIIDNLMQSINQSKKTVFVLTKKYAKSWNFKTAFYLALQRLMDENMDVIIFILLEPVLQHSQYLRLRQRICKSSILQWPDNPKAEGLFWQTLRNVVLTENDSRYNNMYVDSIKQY
Summary of the method: as §1

human TLR9 = biological target: T3, human TLR9 (Homo sapiens, UniProt Q9NR96); assay: TLR9 inhibition reporter assay (HEK-Blue SEAP); details: HEK-Blue cells overexpressing human TLR9, stimulated with ODN2006 5 nM, 22 hour incubation
T3 construct: host or cells: HEK-Blue cells
T3 sequence (Q9NR96 26-1032): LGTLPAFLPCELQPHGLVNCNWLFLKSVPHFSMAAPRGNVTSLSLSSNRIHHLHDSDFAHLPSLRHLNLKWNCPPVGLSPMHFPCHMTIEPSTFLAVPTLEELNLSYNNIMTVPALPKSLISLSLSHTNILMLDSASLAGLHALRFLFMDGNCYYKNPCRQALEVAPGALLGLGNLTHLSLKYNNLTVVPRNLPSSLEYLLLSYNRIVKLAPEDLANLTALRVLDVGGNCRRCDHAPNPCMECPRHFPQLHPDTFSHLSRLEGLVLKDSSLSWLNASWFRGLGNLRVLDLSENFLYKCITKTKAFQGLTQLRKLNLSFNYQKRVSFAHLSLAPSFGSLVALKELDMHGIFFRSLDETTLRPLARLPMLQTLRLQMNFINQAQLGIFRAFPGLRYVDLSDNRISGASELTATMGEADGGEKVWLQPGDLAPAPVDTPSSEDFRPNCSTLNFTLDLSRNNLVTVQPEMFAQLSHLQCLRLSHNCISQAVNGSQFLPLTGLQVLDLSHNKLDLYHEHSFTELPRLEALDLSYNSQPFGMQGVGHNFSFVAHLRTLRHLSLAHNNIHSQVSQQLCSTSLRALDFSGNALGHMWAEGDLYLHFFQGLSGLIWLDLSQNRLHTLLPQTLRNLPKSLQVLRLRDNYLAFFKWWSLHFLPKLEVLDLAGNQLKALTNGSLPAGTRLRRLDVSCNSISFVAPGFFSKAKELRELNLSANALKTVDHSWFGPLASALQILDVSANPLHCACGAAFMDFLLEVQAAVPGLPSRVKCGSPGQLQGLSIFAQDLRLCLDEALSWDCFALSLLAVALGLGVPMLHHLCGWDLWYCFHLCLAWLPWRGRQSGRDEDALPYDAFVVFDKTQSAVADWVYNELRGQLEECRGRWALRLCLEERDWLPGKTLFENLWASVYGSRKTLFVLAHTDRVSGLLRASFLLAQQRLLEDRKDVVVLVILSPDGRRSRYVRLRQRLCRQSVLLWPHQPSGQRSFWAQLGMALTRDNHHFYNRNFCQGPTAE
Summary of the method: as §1

| SMILES | IC50 (human TLR7) | IC50 (human TLR8) | IC50 (human TLR9) |
| --- | --- | --- | --- |
| Cc1cc(-c2cc3[nH]nc(C4CCN(CC(=O)N(C)C)CC4)c3cc2C(C)C)cn2ncnc12 [Example 112, 2-(4-(5-isopropyl-6-(8-methyl-[1,2,4]triazolo[1,5-a]pyridin-6-yl)-1H-indazol-3-yl)piperidin-1-yl)-N,N-dimethylacetamide] | 1.5 nM | 0.3 nM | 20900 nM |
| Cc1cc(-c2cc3[nH]nc(C4CCN(CC(C)(C)O)CC4)c3cc2C(C)C)cn2ncnc12 [Example 113, 1-(4-(5-isopropyl-6-(8-methyl-[1,2,4]triazolo[1,5-a]pyridin-6-yl)-1H-indazol-3-yl)piperidin-1-yl)-2-methylpropan-2-ol] | 1.5 nM | 0.1 nM | 20300 nM |
| Cc1cc(-c2cc3[nH]nc(C4CCC(N(C)C)CC4)c3cc2C(C)C)cn2ncnc12 (stereo not drawn) [Example 115, 4-(5-isopropyl-6-(8-methyl-[1,2,4]triazolo[1,5-a]pyridin-6-yl)-1H-indazol-3-yl)-N,N-dimethylcyclohexan-1-amine] | 0.6 nM | 0.1 nM | 6700 nM |
| Cc1cc(-c2cc3[nH]nc(C4CCN(C5CCOCC5)CC4)c3cc2C(C)C)cn2ncnc12 [Example 116, 6-(5-isopropyl-3-(1-(tetrahydro-2H-pyran-4-yl)piperidin-4-yl)-1H-indazol-6-yl)-8-methyl-[1,2,4]triazolo[1,5-a]pyridine] | 0.6 nM | 0.1 nM | 6550 nM |
| COc1cc(-c2cc3[nH]nc(C4CCN(C(=O)CN(C)C)CC4)c3cc2C(C)C)cn2ncnc12 [Example 117, 2-(dimethylamino)-1-(4-(5-isopropyl-6-(8-methoxy-[1,2,4]triazolo[1,5-a]pyridin-6-yl)-1H-indazol-3-yl)piperidin-1-yl)ethan-1-one] | 3.4 nM | 0.5 nM | 11200 nM |
| Cc1cc(-c2cc3[nH]nc(C4CCN(C5COC5)CC4)c3cc2C(C)C)cn2ncnc12 [Example 120, 6-(5-isopropyl-3-(1-(oxetan-3-yl)piperidin-4-yl)-1H-indazol-6-yl)-8-methyl-[1,2,4]triazolo[1,5-a]pyridine] | 7.4 nM | 1.1 nM | ≥ 50000 nM |
| Cc1cc(-c2cc3[nH]nc(C4CCN(C(=O)CCN(C)C)CC4)c3cc2C(C)C)cn2ncnc12 [Example 122, 3-(dimethylamino)-1-(4-(5-isopropyl-6-(8-methyl-[1,2,4]triazolo[1,5-a]pyridin-6-yl)-1H-indazol-3-yl)piperidin-1-yl)propan-1-one] | 3.2 nM | 0.8 nM | 13700 nM |
| Cc1cc(-c2cc3[nH]nc(C4CCN(C(C)C)CC4)c3cc2C(C)C)cn2ncnc12 [Example 123, 6-(5-isopropyl-3-(1-isopropylpiperidin-4-yl)-1H-indazol-6-yl)-8-methyl-[1,2,4] triazolo[1,5-a]pyridine] | 0.5 nM | 0.1 nM | 5660 nM |
| Cc1cc(-c2cc3[nH]nc(C4CCC(NCCS(C)(=O)=O)CC4)c3cc2C(C)C)cn2ncnc12 (stereo not drawn) [Example 126, 4-(5-isopropyl-6-(8-methyl-[1,2,4]triazolo[1,5-a]pyridin-6-yl)-1H-indazol-3-yl)-N-(2-(methylsulfonyl)ethyl) cyclohexan-1-amine] | 1.1 nM | 0.1 nM | 10800 nM |
| Cc1cc(-c2cc3[nH]nc(C4CCC(NCCS(C)(=O)=O)CC4)c3cc2C(C)C)cn2ncnc12 (stereo not drawn) [Example 127, 4-(5-isopropyl-6-(8-methyl-[1,2,4]triazolo[1,5-a]pyridin-6-yl)-1H-indazol-3-yl)-N-(2-(methylsulfonyl)ethyl) cyclohexan-1-amine] | 1.9 nM | 0.1 nM | 8470 nM |
| Cc1cc(-c2cc3[nH]nc(C4CCC(N5CCOCC5)CC4)c3cc2C(C)C)cn2ncnc12 (stereo not drawn) [Example 132, 4-(4-(5-isopropyl-6-(8-methyl-[1,2,4]triazolo[1,5-a]pyridin-6-yl)-1H-indazol-3-yl)cyclohexyl)morpholine] | 0.9 nM | 0.1 nM | 5430 nM |
| Cc1cc(-c2cc3[nH]nc(C4CCC(N5CCOCC5)CC4)c3cc2C(C)C)cn2ncnc12 (stereo not drawn) [Example 133, 4-(4-(5-isopropyl-6-(8-methyl-[1,2,4]triazolo[1,5-a]pyridin-6-yl)-1H-indazol-3-yl)cyclohexyl)morpholine] | 1.4 nM | 0.2 nM | 9190 nM |
| COC1CN(C2CCC(c3n[nH]c4cc(-c5cc(C)c6ncnn6c5)c(C(C)C)cc34)CC2)C1 (stereo not drawn) [Example 144, 6-(5-isopropyl-3-(4-(3-methoxyazetidin-1-yl)cyclohexyl)-1H-indazol-6-yl)-8-methyl-[1,2,4]triazolo[1,5-a]pyridine] | 0.8 nM | 0.5 nM | 13100 nM |
